Source: patent publication US20100120871A1, “HAIR CARE COMPOSITIONS, METHODS, AND ARTICLES OF COMMERCE THAT CAN INCREASE THE APPEARANCE OF THICKER AND FULLER HAIR” (priority 2008, published 2010)

Test system: primary human dermal papilla cells
Assay: Survival of metabolically stressed primary human dermal papilla cells (ATP, Cell Titer Glo)
Type: cell-based
Design: unit not given here
Conditions: DP cells metabolically stressed 48 hours in reduced media, ATP by Cell Titer Glo, vehicle = 0
Protocol: Primary human dermal papilla cells were metabolically stressed for 48 hours in reduced standard tissue culture media. During this period of stress the cells were treated with the mixtures below dosed from a DMSO vehicle. After 48 hours the metabolic activity of the cells was measured by the amount of ATP using the Cell Titer Glo™ kit (Promega).
The dermal papilla, in normal human hair, is the control center for hair diameter. Increasing survival of dermal papilla cells in situ leads to increased hair diameter. Accordingly, an increase in survival of dermal papilla cells correlates with an increase in hair diameter.

SMILES | Survival (Table 1A) | Survival (Table 1B) | Survival (Table 2A) | Survival (Table 2B) | Survival (Table 3)
CC(C)(CO)[C@@H](O)C(=O)NCCCO [Panthenol, panthenol] | −0.17 | −0.17 | −0.01 | −0.13 | 
OCc1c[nH]c2ccccc12 [Example I3C, Indole-3-Carbinol] |  |  | −0.16 | 0.08 | 
O=C(O)Cc1c[nH]c2ccccc12 [IAA, indole-3-acetic acid] | −0.17 | −0.18 |  |  | 
NC(=O)c1cccnc1 [Niacinamide, niacinamide] | −0.02 | −0.02 | −0.16 | 0.1 | 
OCCc1c[nH]c2ccccc12 [HI, Tryptophol] |  |  |  |  | 1.72
